Converted amounts (≈) assume the structure as drawn.
What was measured:
[1] = system: MRSA BF2; assay: MIC assay (micro-dilution); type: cell-based, S. aureus; details: Staphylococcus aureus
Procedure: Minimal inhibitory concentration (MIC) assay. The MICs of antibiotics were determined by the standard micro-dilution method recommended by the Clinical and Laboratory Standards Institute. MIC assays were conducted in biological triplicate.
Antimicrobial activity of each analog was tested against four MRSA strains (MW2, BF1, BF2, and BF3), Pseudomonas aeruginosa (PA14), Klebsiella pneumonia (WGLW2), and Acinetobacter baumannii (ATCC 17978).

[2] = Giant unilamellar vesicles (GUVs) assay, mammalian mimetic
Procedure: Giant unilamellar vesicles (GUVs) assay. GUVs were prepared by slightly modifying the electroformation method described previously. 1,2-dioleoyl-sn-glycero-3-phosphocholine (DOPC), 1,2-dioleoyl-sn-glycero-3-phospho-(1′-rac-glycerol) (DOPG), 1-palmitoyl-2-oleoyl-glycero-3-phosphocholine (POPC), cholesterol (ovine wool) and 1,2-dioleoyl-sn-glycero-3-phosphoethanolamine-N-(lissamine rhodamine B sulfonyl) (18:1 Liss Rhod PE) were purchased from Avanti Polar Lipids (Alabaster, Ala., USA). 4 mM lipid mixtures consisting of DOPC/DOPG/18:1 Liss Rhod PE (7:3:0.005) and POPC/cholesterol/18:1 Liss Rhod PE (7:3:0.005) were dissolved in chloroform respectively. Same procedure was used to prepare both kinds of GUVs. Indium tin oxide (ITO)-coated slides (50×75×1.1 mm, Delta Technologies, Loveland, Colo., USA) were coated with […] of the lipid mixture and dried in a vacuum chamber for 2 h to remove chloroform. An electroformation chamber was made by placing a 2 mm thick Teflon spacer between the two lipid-coated ITO slides. […] After adding 1 μl of compound solution to a well (final compound concentration: 1× MIC), the GUVs were observed and imaged with an optical microscope equipped with fluorescence contrast and a digital camera (63x objectives, Axio Observer. A1 & AxioCam MRm, Zeiss, Germany). […]

[3] = system: S. aureus MW2; assay: Membrane fluidity assay (Laurdan GP); type: cell-based; details: 1 h
Procedure: Membrane fluidity assay. Bacterial membrane fluidity was estimated by slightly modifying previously described methods. An overnight culture of S. aureus MW2 was diluted 1:1,000 in 25 mL TSB. The diluted culture was grown to OD600˜1.5 at 37° C. with shaking at 200 rpm, followed by 10 min incubation with 10 μM Laurdan at room temperature in the dark (Sigma-Aldrich, Cat # 40227). The stained cell culture was washed with PBS 4 times and concentrated 2 times. 100 μL of the 2-fold concentrated culture was mixed with 100 μL of phosphate buffered saline (PBS) containing twice the desired concentrations of compounds in black, clear-bottom, 96-well plates (Corning no. 3904). After 1 h incubation at room temperature in the dark, the Laurdan fluorescence intensities were measured using a spectrophotometer (SpectraMax M2, Molecular Devices) with emission wavelengths of 435 nm and 490 nm upon excitation at 350 nm. The Laurdan GP was calculated using the formula GP=(I435−I490)/(I435+I490). All experiments were conducted in biological triplicate.

[4] = system: S. aureus MW2; assay: Transmission electron microscopy; type: cell-based; details: 10× MIC, 2 h
Procedure: Transmission electron microscopy. S. aureus MW2 was grown to exponential phase (OD600=˜0.4) at 37° C. Bacterial cultures were then treated with 10× MIC of bithionol or 0.1% DMSO (control) at 37° C. for 2 h. 1 mL of the treated bacterial samples were fixed with the same volume of a 2× fixative, a mixture of 5% glutaraldehyde, 2.5% paraformaldehyde and 0.06% picric acid in 0.2 M sodium cacodylate buffer (pH 7.4). Fixed cells were washed in 0.1 M cacodylate buffer and post-fixed with 1% Osmium tetroxide (OsO4)/1.5% Potassium ferrocyanide (KFeCN6) for 1 h. The fixed cells were washed twice in water, once in maleate buffer, and incubated in the maleate buffer containing 1% uranyl acetate for lh. Cells were then washed twice in water and subsequently dehydrated in an alcohol gradient series (10 min each; 50%, 70%, 90%, 2×10 min 100%). The cells were then incubated in propyleneoxide for 1 h, infiltrated overnight in a 1:1 mixture of propyleneoxide and Spurr's low viscosity resin (Electron Microscopy sciences, Hatfield, Pa.) and polymerized at 60° C. for 48 h. Ultrathin sections (about 60 nm) were cut on a Reichert Ultracut-S microtome (Leica Microsystem, Wetzlar, Germany), picked up onto copper grids, and stained with lead citrate. Micrographs of the cells were taken using a JEOL 1200EX transmission electron microscope (Harvard Medical School EM facility).

[5] = system: human erythrocytes; details: 1 h
[6] = system: Gram-positive bacteria including S. aureus, Bacilius subtilis, and Enterococcus faecium; details: previously described; cited from earlier work

Oc1c(Cl)cc(Cl)cc1Sc1cc(Cl)cc(Cl)c1O [bithionol, 6,6′-thio-bis-(2,4-dichlorophenol)]
MIC [1]: 0.5 µg/mL (≈ 1.4 µM)
effect on 7POPC/3 cholesterol GUVs [2]: did not cause observable effects
concentrations inducing a significant decrease in Laurdan GP [3]: over 8 μg/mL
TEM findings [4]: disrupts MRSA membranes
HC50 [5]: > 64 µg/mL
minimal inhibitory concentration (MIC) [6]: 8 to 15 µg/mL
